The source of these data is patent US20190167811A1, “LIPID COMPOSITIONS AND THEIR USES FOR INTRATUMORAL POLYNUCLEOTIDE DELIVERY” (ModernaTX, Inc., priority 2016, published 2019).

This data set is described as follows: Plasma and liver pharmacokinetics of LNP formulated mRNAs. Type of data set: in vivo. As for the experimental part: The plasma and liver pharmacokinetics of a lipid formulation (LNP) containing Compound 18 and an mRNA encoding a protein of interest was studied. The concentrations of Compound 18 in plasma after a single IV infusion are shown FIG. 28. The concentration of Compound 18 decreased quickly within about 12 hours.
The concentrations of Compound 18 in liver tissues after weekly dosing were measured at day 1, day 8, and day 15.

Each structure is given as a SMILES string. Bounds are passed on as bounds.

In the case of `CCCCCCCCCOC(=O)CCCCCCCN(CCO)CCCCCCCC(=O)OC(CCCCCCCC)CCCCCCCC` [Compound 18, Heptadecan-9-yl 8-((2-hydroxyethyl)(8-(nonyloxy)-8-oxooctyl)amino) octanoate], the “time within which the concentration of Compound 18 in plasma decreased quickly” value (single IV infusion of LNP containing Compound 18 and mRNA) is at most 12 h. Under “weekly dosing, measured at day 1, day 8, day 15, at four hours after each weekly dosing”, the “concentration of Compound 18 in liver tissues” value is listed as “decreased significantly”.
